# Results reported in patent publication US8492329B2, “Bioactive peptides and methods of using same” (Compugen Ltd., priority 2007, dated 2013).
# No end group written: not given here.
# How the values were obtained:
# GPR39 = target: T1, GPR39 (Homo sapiens, UniProt O43194); assay: ACEA RT-CES cell impedance, GPR39 transfected CHO-K1 cells; format: cell-based; conditions: P74C13V 10 uM, H2 Relaxin 1 uM, FIG. 12
# T1 construct: expressed in transfected cells; host or cells: CHO-K1 (transient, FuGENE6; pIRES-eGFP co-transfected)
# T1 sequence (O43194 1-453): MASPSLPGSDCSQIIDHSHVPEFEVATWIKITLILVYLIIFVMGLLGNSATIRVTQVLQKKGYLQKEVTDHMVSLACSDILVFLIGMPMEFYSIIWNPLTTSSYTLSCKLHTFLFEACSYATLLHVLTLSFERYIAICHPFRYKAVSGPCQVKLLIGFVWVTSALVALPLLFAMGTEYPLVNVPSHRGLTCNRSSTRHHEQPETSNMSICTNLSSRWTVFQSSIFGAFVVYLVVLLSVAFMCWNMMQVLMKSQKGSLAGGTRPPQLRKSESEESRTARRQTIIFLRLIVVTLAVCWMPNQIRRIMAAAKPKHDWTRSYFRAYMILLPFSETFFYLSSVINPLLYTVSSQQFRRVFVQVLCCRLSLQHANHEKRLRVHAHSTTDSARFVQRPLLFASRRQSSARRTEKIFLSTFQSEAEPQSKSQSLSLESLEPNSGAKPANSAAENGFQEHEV
# Description: (§1) ACEA RT-CES screen is a noninvasive and label-free assay for GPCRs that can be used with both engineered and nonengineered cell lines. The assay is based on using cell-electrode impedance to measure minute changes in cellular morphology as a result of ligand-dependent GPCR activation and is described in Naichen Yu, et al., Anal. Chem., 78 (1), 35-43, 2006. 10.1021/ac051695v S0003-2700(05)01695-1. The Rho family of small GTPases, which include Rho, Rac, and CDC42, are well-characterized effectors of oncogenes, growth factor and adhesion-mediated signaling pathways and are not classically thought of as being key effectors for GPCRs. […] Since GPCRs couple to the actin cytoskeletal network and induce very defined morphological changes, it is possible to harness this information as a functional and biologically relevant readout for GPCRs.
# (§2) ACEA biosciences; has designed electronic cell sensor arrays embedded in the bottom of the well of microtiter plates that are capable of measuring minute changes in cell morphology. […] The main advantages offered by using cell-substrate impedance and cell morphology as a readout are that both exogenously expressed and endogenous receptors can be assayed without the need for engineering the cell with promiscuous G proteins and reporters or labeling the cells with dyes. […]
# LGR4 = target: T2, LGR4 (Homo sapiens, UniProt Q9BXB1); assay: ACEA RT-CES cell impedance, LGR4 transfected CHO-K1 cells; format: cell-based; conditions: P74C13V 10 uM, H2 Relaxin 1 uM, FIG. 15
# T2 construct: expressed in transfected cells; host or cells: CHO-K1 (transient)
# Description: as §1, §2
effect on cell impedance (normalized cell index) (GPR39),effect on cell impedance (normalized cell index) (LGR4),Substance
moderate yet visible effect,moderate effect,GQKGQVGPPGAAVRRAYAAFSVGRRAYAAFSV-OH [Peptide P74C13V]
moderate yet visible effect,much stronger effect,"H2 Relaxin: H2 Relaxin (ACS), positive control, known ligand of LGR7 (RXFP1) [reference compound]"
